For data set [1] the following is noted: multiple radioactive products distinct from parent drug following renal clearance; cited from earlier work.
A further data set has as its system hypoxic tumors. The following applies: in vivo; cited from earlier work.
The conditions of data set [2]: cited from earlier work.
Data set [3] is described as follows: Distribution of radioactive drug in various organs and tissues of tumor-bearing rats (γ-counter). The data set is classed as in vivo, male Buffalo rats. The following applies: I/V. The method, then:
To measure the distribution of radioactive drug in various organs and tissues, the solution of […] in saline buffer was injected I/V into 3 male Buffalo rats. […] The radioactivity of samples was measured by γ-counter and corrected for weight and the time of decay.
Results from 3 animals are shown.

Data set [4] relates to hypoxic Q7 tumor (Morris 7777 hepatoma). Briefly: PET analysis of a tumor-bearing rat treated with [18F]-EF5. The format is in vivo, male Buffalo rats. The following applies: rat bearing Q7 tumor in the leg, 150 minutes post injection. The method, then: The dark spot on the right side of the image represents a tumor and the dark spot in the middle of the image represents a bladder.
FIG. 3 illustrates a PET image of a tumor-bearing rat treated with 18-F-labeled EF5, 150 minutes post injection. The dark spot in the right side of the image represents the tumor and the dark spot in the middle of the image represents the bladder.
Q7 cells were obtained from the American Type Culture Collection (ATCC). They were maintained in exponential growth by transfers at 3.5 day intervals with standard culture conditions. Growth medium was Eagle's NEM supplemented with 15% fetal calf serum and standard penicillin and streptomycin.
All animal studies conformed to the regulations of the University of Pennsylvania Institutional Animal Care and Use Committee. Male Buffalo rats (Harlan Sprague Dawley, Indianapolis, Ind., USA) were used for all studies. Donor tumors were created by injecting 1 million Q7 cells subcutaneously into the thigh region. The average growth time to achieve a 1 cm diameter tumor was 21 days. Tumors of less than 2 g were used in the experiments.

Here are results for 4 compounds from patent US7432295B2, “Preparation of compounds useful for the detection of hypoxia” (The Trustees of The University of Pennsylvania, priority 1999, dated 2008).

“And” between values parts separate entries of the source, which are not always exact repeats. Identical values can stand only once.

`O=[N+]([O-])c1nccn1CC(O)C[18F]` (stereo not shown) [[^18F]-fluoromisonidazole]: the Stability in vivo result in data set [1] is recorded as “not stable in vivo”.
Regarding `O=C(Cn1ccnc1[N+](=O)[O-])NCCCF` [[^18F]-EF1], in the data set on hypoxic tumors, the Biodistribution result is “relatively uniform biodistribution limited by slow equilibration with brain tissue” and the “Labeling of hypoxic tumors” value is “good potential for labeling of hypoxic tumors”.
For `O=C(Cn1ccnc1[N+](=O)[O-])NCC(F)(F)C(F)(F)F` [EF5, 2-(2-nitro-1H-imidazol-1-yl)-N-(2,2,3,3,3-pentafluoropropyl)acetamide], in data set [2], the “Drug stability in vivo” value is given as “high drug stability in vivo”. For the same compound, the Blood-brain barrier passage entry in data set [2] (in vivo) is reported as “ability to cross blood-brain barrier”.
On to `O=C(Cn1ccnc1[N+](=O)[O-])NCC(F)(F)C(F)(F)F` [[^18F]-EF5, [^18F]-2-(2-Nitro-1H-imidazol-1-yl)-N-(2,2,3,3,3-pentafluoropropyl)-acetamide], for which the “Tissue distribution of [^18F]-EF5 in rats bearing tumors” value (“Tissue distribution of [^18F]-EF5” for short) was 0.260 % dose/gram and 0.279 % dose/gram in data set [3] (Blood, 3 hrs); 0.040 % dose/gram and 0.079 % dose/gram in data set [3] (Bone, 3 hrs); 0.071 % dose/gram in data set [3] (Bone, 4 hrs); 0.116 % dose/gram and 0.176 % dose/gram in data set [3] (Brain, 3 hrs); 0.150 % dose/gram in data set [3] (Brain, 4 hrs); 0.209 % dose/gram and 0.318 % dose/gram in data set [3] (Heart, 3 hrs). Moreover, the “Tissue distribution of [^18F]-EF5” value in data set [3] (Heart) was 0.277 % dose/gram; in data set [3] (Intestine, 3 hrs), 0.410 % dose/gram and 0.477 % dose/gram; in data set [3] (Intestine, 4 hrs), 0.376 % dose/gram; in data set [3] (Kidney, 3 hrs), 0.510 % dose/gram and 0.650 % dose/gram; in data set [3] (Kidney, 4 hrs), 0.500 % dose/gram; in data set [3] (Liver, 3 hrs), 0.399 % dose/gram and 0.578 % dose/gram. The “Tissue distribution of [^18F]-EF5” value in data set [3] (Liver, 4 hrs) was 0.489 % dose/gram; in data set [3] (Lung, 3 hrs), 0.217 % dose/gram and 0.357 % dose/gram; in data set [3] (Lung, 4 hrs) it was 0.326 % dose/gram; in data set [3] (Muscle, 3 hrs), 0.162 % dose/gram and 0.246 % dose/gram; in data set [3] (Muscle, 4 hrs), 0.187 % dose/gram; in data set [3] (Spleen, 3 hrs) it was 0.192 % dose/gram and 0.294 % dose/gram. The “Tissue distribution of [^18F]-EF5” value in data set [3] (Spleen, 4 hrs) is given as 0.242 % dose/gram. Further, the “Visibility of the tumor in the PET image” value in data set [4] is given as “clearly visible”.
